Data as given in publication PMC7144182, “Synthesis, biological evaluation and molecular modelling of 2,4-disubstituted-5-(6-alkylpyridin-2-yl)-1H-imidazoles as ALK5 inhibitors” (Journal of Enzyme Inhibition and Medicinal Chemistry, 2020).
Several values for one entry are separate records, joined by “and”; a condition that tells them apart may be missing. Identical values can stand only once.

How the values were obtained:
ALK5 [1] = biological target: T1, ALK5 (Homo sapiens, UniProt P36897)
T1 sequence (P36897 34-503): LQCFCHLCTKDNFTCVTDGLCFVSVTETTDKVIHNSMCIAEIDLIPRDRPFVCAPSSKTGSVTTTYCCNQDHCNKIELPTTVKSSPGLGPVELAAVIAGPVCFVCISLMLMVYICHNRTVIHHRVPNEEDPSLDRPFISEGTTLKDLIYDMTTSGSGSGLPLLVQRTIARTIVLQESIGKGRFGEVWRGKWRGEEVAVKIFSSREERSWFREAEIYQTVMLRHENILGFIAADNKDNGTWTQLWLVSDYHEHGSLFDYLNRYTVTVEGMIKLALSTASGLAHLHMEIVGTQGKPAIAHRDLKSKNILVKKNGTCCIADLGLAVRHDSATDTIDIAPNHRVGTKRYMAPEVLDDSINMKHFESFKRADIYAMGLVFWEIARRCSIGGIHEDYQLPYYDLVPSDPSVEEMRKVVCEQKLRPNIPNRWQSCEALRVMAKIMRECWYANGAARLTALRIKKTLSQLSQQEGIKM

p38α = p38α (Homo sapiens, UniProt Q16539); experiment: p38α kinase assay (33PanQinase, ATF2 as substrate); assay type: biochemical
Chain of p38α (Q16539 whole entry): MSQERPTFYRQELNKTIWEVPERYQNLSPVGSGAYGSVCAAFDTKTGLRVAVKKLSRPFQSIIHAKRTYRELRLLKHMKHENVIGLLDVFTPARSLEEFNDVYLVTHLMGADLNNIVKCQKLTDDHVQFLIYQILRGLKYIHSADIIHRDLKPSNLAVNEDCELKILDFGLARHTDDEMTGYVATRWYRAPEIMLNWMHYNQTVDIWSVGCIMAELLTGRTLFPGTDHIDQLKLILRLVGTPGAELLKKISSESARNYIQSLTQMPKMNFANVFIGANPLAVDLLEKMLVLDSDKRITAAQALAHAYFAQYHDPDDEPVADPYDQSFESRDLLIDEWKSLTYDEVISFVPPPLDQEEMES

[2] = system: panel of 28 protein kinases; details: panel of 28 protein kinases (19 serine/threonine, 9 tyrosine kinases)
From the text: Because ALK5 is a serine/threonine kinase, we chose 19 serine/threonine kinases including ALK5 and an ALK family kinase, ACV-R1 (ALK5, ACV-R1, Aurora-A, ARK5, B-Raf, CK2α1, COT, DAPK1, IRAK4, JNK3, MAPKAPK5, MST4, NEK2, NLK, PAK1, PIM1, PRK1, S6K, SGK1) and 9 tyrosine kinases (ABL1, CSK, FGF-R1, FLT3, IGF1-R, PDGFR-α, SRC, VEGF-R1, ZAP70).

Caco-2 cells = experiment: Caco-2 cell permeability assay; assay type: in vitro ADME; details: 100 µM, AP to BL, 2 h; mean ± SD of quadruplicates
Method: Caco-2 cells were seeded in Transwell® polycarbonate filter at a density of 8 × 10^4 cells/filter and cultured for 21 days. Culture medium was removed from both apical (AP) and basolateral (BL) chambers of transwell, and the wells were rinsed three times with PBS. AP buffer (HBSS, pH 6.5) containing 10 mM MES and BL buffer (HBSS, pH 7.4) containing 10 mM HEPES were loaded in AP (500 µL) and BL (1500 µL) chambers, respectively, followed by incubation for 30 min at 37 °C. Then, test compound (100 µM) was added to the AP side and incubated for 2 h at 37 °C. After the incubation, BL buffer was collected and analysed using an UV spectrophotometer at a maximum wavelength (wavelength 225–357 nm).
To estimate oral absorption of target compounds, their permeability in a Caco-2 monolayer was evaluated at a concentration of 100 µM (Table 1).

[3] = biological target: T2, purified human ALK5 kinase domain (Homo sapiens, UniProt P36897); experiment: ALK5 kinase assay (33PanQinase, casein as substrate); assay type: biochemical; details: casein substrate, 1 μM ATP; singlicate (11e: mean of triplicates)
T2 construct: using the purified human ALK5 kinase domain produced in Sf9 insect cells; host or cells: Sf9 insect cells
T2 sequence (P36897 205-495 limits assumed): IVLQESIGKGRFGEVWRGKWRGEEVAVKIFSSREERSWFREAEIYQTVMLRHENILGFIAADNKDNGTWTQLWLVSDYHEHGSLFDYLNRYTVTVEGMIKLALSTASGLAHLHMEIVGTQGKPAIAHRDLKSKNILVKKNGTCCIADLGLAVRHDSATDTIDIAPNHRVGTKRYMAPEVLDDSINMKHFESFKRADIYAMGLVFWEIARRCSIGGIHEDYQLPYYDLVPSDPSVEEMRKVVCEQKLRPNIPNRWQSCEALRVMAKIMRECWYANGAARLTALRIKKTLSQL
Method: To evaluate whether these potential inhibitors 7a–c, 11a–h, and 16a–h could inhibit ALK5, a kinase assay was performed using the purified human ALK5 kinase domain produced in Sf9 insect cells and casein as a substrate (Table 1).

[4] = system: TGF-β1-induced luciferase reporter activity, HaCaT (3TP-luc) stable cells; experiment: Cell-based p3TP-luciferase reporter assay
Method: To establish HaCaT (3TP-luc) stable cells, cells were seeded on six-well plates. Cells were allowed to adhere overnight and then transfected with the p3TP-luc (neo) expression plasmid using PEI reagent (Sigma Aldrich). Transfected cells were cultured for four weeks in the presence of G418 (500 µg/mL). Several single clones were isolated and measured luciferase activity. The clone showing response to TGF-β1 treatment was used for reporter assay. HaCaT (3TP-luc) stable cells were seeded at 2.5 × 10^4 cells/well in 96-well plate and were allowed to adhere overnight. Cells were concomitantly treated with TGF-β1 (2 ng/mL) and indicated concentrations of ALK5 inhibitors in 0.2% FBS medium and incubated for 24 h at 37 °C in 5% CO2. Cell lysates were prepared using Luciferase Assay System (Promega) according to the manufacturer’s instruction, and luminescence was measured by a luminometer, Micro Lumat Plus (Berthold, Germany).

[5] = rats; cited from earlier work
ALK5 [6] = details: cited from earlier work
ALK5 [7] = details: cited from earlier work; remark: listed apart in the source

Row | Compound | fold higher potency compared to galunisertib (ALK5 [1]; ALK5 kinase assay) [fold] | IC50 (ALK5 [1]; read-out: IC50 for ALK5, GSK3 (14–27) substrate, 1 μM ATP, mean of duplicates) [nM] | Selectivity index (IC50 for p38α/IC50 for ALK5) (p38α) | fold less selective against p38α than vactosertib (p38α) [fold] | fold more selective against p38α than galunisertib (p38α) [fold] | IC50 (p38α; ATF2 substrate, mean of duplicates) [nM] | Selectivity indices against all the kinases tested [2] | Caco-2 permeability (%) (Caco-2 cells) | IC50 [3] [nM] | % inhibition in luciferase reporter assay ([4]; 0.1 µM inhibitor) [% inhibition] | p3TP-luciferase activity (% control) ([4]; 0.1 μM inhibitor, TGF-β1 2 ng/mL, 24 h, mean ± SD of three independent experiments) | IC50 ([4]; Homo sapiens, HaCaT, read-out: IC50 for p3TP-luciferase) [nM] | oral bioavailability [5] | ALK5 inhibitory activity in a cell-based luciferase reporter assay (ALK5 [6]) | ALK5 inhibitory activity in a kinase assay (ALK5 [7])
1 | Cc1cccc(-c2[nH]c(Cc3cccc(C(N)=O)c3)nc2-c2ccc3nccnc3c2)n1 [Compound 11e, 3-((5-(6-Methylpyridin-2-yl)-4-(quinoxalin-6-yl)-1H-imidazol-2-yl)methyl)benzamide] | 6.6 | 13 | 22 | 6.2 | 5.5 | 288 | > 100 | 56% and 56 ± 26.8% | 36 | 92 | 8 ± 5.8 | 19.6 | – | – | –
2 | Cc1cccc(-c2[nH]c(CNc3ccccc3F)nc2-c2ccc3ncnn3c2)n1 [Vactosertib (2), N-((4-([1,2,4]triazolo[1,5-a]pyridin-6-yl)-5-(6-methylpyridin-2-yl)-1H-imidazol-2-yl)methyl)-2-fluoroaniline] | – | – | – | – | – | – | – | – | – | – | – | – | moderate | subnanomolar | subnanomolar
